Experimental data reported in patent US7468446B2, “Substituted heterocyclic compounds and uses thereof” (Celgene Corporation, priority 2004, dated 2008).

For COc1cc(OC)cc(C(=CC#N)c2ccc3ccn(C)c3c2)c1 (mixture of isomers) [compound 7, (E/Z)-3-(3,5-Dimethoxy-phenyl)-3-(1-methyl-1H-indol-6-yl)-acrylonitrile], which melting point is on record?
The melting point was 117 to 119 °C.

For CCOc1cc(C(=CC#N)c2ccc3occc3c2)ccc1OC (mixture of isomers) [compound 10, (E/Z)-3-Benzofuran-5-yl-3-(3-ethoxy-4-methoxy-phenyl)-acrylonitrile], which melting point is on record?
The melting point was 95 to 97 °C.

For CCOc1cc(C(=CC#N)c2ccc3ncccc3c2)ccc1OC (mixture of isomers) [compound 5, (E/Z) 3-(3-Ethoxy-4-methoxy-phenyl)-3-quinolin-6-yl-acrylonitrile], which melting point is on record?
Its melting point is 114 to 116 °C.

Which melting point does the source give for CCOc1cc(C(=CC#N)c2ccc3c(c2)nnn3C)ccc1OC (mixture of isomers) [compound 4, (E/Z) 3-(3-Ethoxy-4-methoxy-phenyl)-3-(1-methyl-1H-benzotriazol-5-yl)-acrylonitrile] here?
Its melting point is 180 to 182 °C.

With CCOc1cc(C(=CC#N)c2ccc3c(c2)CCO3)ccc1OC (mixture of isomers) [compound 1, (E/Z) 3-(2,3-Dihydro-benzofuran-5-yl)-3-(3-ethoxy-4-methoxy-phenyl)-acrylonitrile] as the compound, how does the melting point read?
The melting point was 49 to 51 °C.

For COc1cc(OC)cc(C(=CC#N)c2ccc3ncccc3c2)c1 (mixture of isomers) [compound 6, (E/Z) 3-(3,5-Dimethoxy-phenyl)-3-quinolin-6-yl-acrylonitrile], which melting point is on record?
The melting point was 142 to 144 °C.

For CCOc1cc(C(=CC#N)c2ccc3c(c2)OCCN3C)ccc1OC (mixture of isomers) [compound 3, (E/Z) 3-(3-Ethoxy-4-methoxy-phenyl)-3-(4-methyl-3,4-dihydro-2H-benzo[1,4]oxazin-7-yl)-acrylonitrile], which melting point is on record?
Its melting point is 99 to 101 °C.

Which melting point does the source give for CCOc1cc(C(=CC#N)c2ccc3cc[nH]c3c2)ccc1OC (mixture of isomers) [compound 8, (E/Z)-3-(3-Ethoxy-4-methoxy-phenyl)-3-(1H-indol-6-yl)-acrylonitrile] here?
The melting point was 132 to 134 °C.

Which melting point does the source give for COc1cc(OC)cc(C(=CC#N)c2ccc3c(c2)OCCN3C)c1 [compound 2, 3-(3,5-Dimethoxy-phenyl)-3-(4-methyl-3,4-dihydro-2H-benzo[1,4]oxazin-7-yl)-acrylonitrile] here?
Its melting point is 119 to 121 °C.
